# Assay results from article PMC6756013, “B591, a novel specific pan-PI3K inhibitor, preferentially targets cancer stem cells” (Oncogene, 2019).
# Assays:
# [1] = test system: PI3K/Akt/mTORC1 and mTORC2 signaling in multiple cancer cell lines; assay: Western blot of PI3K downstream effectors in multiple tumor cell lines; type: cell-based; settings: 5 h
# Procedure: (§1) Fig. 2 B591 inhibits PI3K/Akt pathway in multiple cancer cell lines. a Representative images of Akt1 redistribution in IGF-1-treated cells in the absence or presence of B591. Scale bar represents 10 μm. Arrows indicate IGF-1-mediated membrane translocation detected by the image analysis algorithm. b Inhibition of mTORC1 and mTORC2 signaling in multiple cancer cell lines, exposed for 5 h to increasing concentrations of B591. c HepG2 cells were treated with DMSO or 20 μM of B591 for 5 h. Immunofluorescence (red) intensity reflects eIF4E subcellular distribution. Cells were visualized with high content reader. Representative images are shown, and scale bar represents 50 μm. d Nuclear-to-cytoplasmic ratio of eIF4E in five cancer cell lines was determined via high content reader. e The phosphorylation of AKT and ERK was determined by immunoblotting in RD cells in the presence of 10 μM of B591 after indicated time of exposure. f Inhibition of the phosphorylation of AKT and ERK in RD cells treated with B591, PI-103 or Rapamycin for 24 h was determined by immunoblotting
# The key effectors downstream of PI3K were examined by western blot analysis in multiple tumor cell lines with different genetic background. […] Most recent study identified PtdIns(3,4,5)P3, which is generated by activated PI3K, as a direct upstream activator for mTORC2, highlighting the critical role of PI3K in mTORC2 activation. Therefore, the effect of B591 on mTORC2 signaling was evaluated by testing the phosphorylation levels of Akt at Ser473 and its substrate GSK3β at Ser9.
# [2] = test system: phosphorylation of Akt and ERK in RD cells; assay: Immunoblotting of feedback activation of Akt and ERK; type: cell-based, human; settings: up to 24 h, B591 10 μM
# Procedure: as §1
# Despite a significant efficacy in preclinical models, the clinical tumor response to mTORC1 inhibitors, such as rapalogs, is modest. […]
# MDA-MB-231 cells = assay: Cell cycle analysis; type: cell-based, human; settings: 24 h
# Procedure: MDA-MB-231 cells were seeded in six-well plates at a density of 4×10^5 cells per well. The next day, cells were treated with B591 (0, 2.5, 5, 10 μM) for 24 h. Then the cells were trypsinized, centrifuged at 300 g for 5 minutes and fixed in 1 ml of 70 % cold ethanol. After incubation at -20℃ overnight, the cells were collected by centrifugation at 500 g for 5 min and pellets were resuspended in 500 μl PBS containing 300 μg/ml of RNase (Sigma, MO, USA). After incubation at 37 ℃ for 30 min, the pellets were stained with 100 μg/ml of propidium iodine (Sigma, MO, USA) for 20 min. Cell cycle distribution was determined by flow cytometry (FACScaliber, Becton Dickinson).
# RD cells = assay: Apoptosis assay (Annexin V-FITC); type: cell-based, human; settings: 48 h
# Procedure: Cells were seeded in six-well plates at a density of 2×10^5 cells per well and kept overnight at 37℃ humidified incubator with 5% CO2. The next day, cells were treated with B591 for 48 h. Cells were then collected and stained using Annexin V-FITC Apoptosis Detection Kit I (BD Pharmingen™, Franklin Lakes, NJ, USA) according to manufacturer’s instruction. In brief, cells were washed with cold PBS twice and with binding buffer once, about 1×10^5 cells were resuspended in 100 μl Annexin-V binding buffer, followed by incubation with FITC conjugated Annexin V and propidium iodide (PI) for 15 min at room temperature in the dark. The apoptosis assay was performed by using BD FACSCalibur flow cytometry.
# Supplementary Fig. S8. B591 induces G0/G1 cell cycle arrest and apoptosis in tumor cells. […] The cells were harvested and analyzed for cell cycle profile. […] The cells were harvested and processed for apoptosis assay using the Annexin V-FITC Apoptosis Detection Kit. (D) Quantification of flow cytometry analysis of apoptosis. Results were presented as mean ± SD (n = 3). ^***p <0.001, difference versus DMSO-treated control group.
# [3] = test system: MDA-MB-231 and SUM-159PT monolayer and mammosphere cells; assay: Proliferation inhibition of monolayer versus mammosphere cells; type: cell-based, human
# Procedure: The proliferation inhibitory activities of B591 were compared between monolayer and mammosphere cells.
# Cells were treated with indicated agents for 48 h, and cells were harvested and processed for apoptosis assay using the PE-Annexin V/7-AAD Apoptosis Detection Kit. d Representative flow cytometry plots of apoptosis inducing activity of B591 (10 μM) and paclitaxel (10 nM) on monolayer and mammosphere MDA-MB-231 cells. e B591 preferentially targeted CD44^high/CD24^low cells. Cells were treated with B591 or paclitaxel for 2 days. Following a 4-day recovery period, cells were co-stained with CD44 and CD24 antibodies and subjected to FACS analysis. Representative flow cytometry plots show the effect of B591 on CD44^high/CD24^low population in MDA-MB-231 cells in vitro. f B591 decreased mammosphere forming efficiency. Primary MDA-MB-231 mammospheres were treated with B591 or paclitaxel for 48 h. Results of the secondary mammosphere-formation assay are shown. Scale bar represents 40 μm. g B591 decreased the expression of CSC markers in MDA-MB-231 cells. Cells were treated with B591 or paclitaxel for 2 days. […] They label a gated population in plots with axes CD44 and CD24. / Panel E: DMSO is the vehicle control. Its printed value is included all the same.
# [4] = test system: CD44high/CD24low population in mammospheres from SUM-159PT cells; assay: CSCs phenotype assay (CD44/CD24 flow cytometry); type: cell-based; settings: 4 µM
# Procedure: Cells were treated with B591 for 24 h, then the cell suspension was incubated with 20 μl of CD44-APC (#559942, BD Pharmingen, Franklin Lakes, NJ, USA) and 20 μl of CD24-PE (#555428, BD Pharmingen) antibodies for 30 min in dark at 4 ℃. Phenotype was detected by BD FACSCalibur, and data was analyzed with Flowjo. ALDH activity was analyzed with ALDEFLUOR Kit (STEMCELL Technologies, Vancouver, BC, Canada) according to the manufacture’s protocol.
structure (smiles),measurement,setting,value
"Cc1cc2c(cc1C)[n+](Cc1ccccc1Br)cn2Cc1ccc2c(c1)CCO2.[Br-] [B591, 3-(2-bromobenzyl)-1-((2,3-dihydrobenzofuran-5-yl)methyl) -5,6-dimethyl-1H-benzo[d]imidazol-3-ium bromide]","PI3K/Akt/mTORC1 signaling (phosphorylation of 4E-BP1, S6K1, S6)",[1],effectively inhibited PI3K/Akt/mTORC1 signaling
same,mTORC2 signaling: p-Akt (Ser473) and p-GSK3β (Ser9),[1]; all tested cell types,concentration-dependent decrease
same,Phosphorylation of Akt at Thr308,[1]; increasing concentrations,potently inhibited
same,Phosphorylation of Akt and ERK,[2],effectively suppressed the phosphorylation of Akt and ERK over the whole time course of 24 h
same,Cell cycle distribution,MDA-MB-231 cells,effectively arrested cells in G0/G1 phase
same,Apoptosis induction,RD cells,significant apoptosis inducing effect
same,"Proliferation inhibitory activity, mammosphere versus monolayer cells",[3],more potent against mammosphere cells
same,Decrease of CD44high/CD24low population,[4],82%
